PMC12123458, “Unraveling Small Molecule-Mediated Sirtuin 3 Activation at a Distinct Binding Site for Cardioprotective Therapies” (ACS Central Science, 2025)
Residue numbers refer to the chain shown, from its start.

Legend:
SIRT3 L298G mutant = target: T1, SIRT3 L298G mutant (Homo sapiens, UniProt Q9NTG7, L298G); assay: BLI binding of SKLB-11A to mutant SIRT3 (L298G); conditions: read-out: dissociation constant, L298G mutant SIRT3
T1 construct: made in house
T1 sequence (Q9NTG7 1-399 L298G): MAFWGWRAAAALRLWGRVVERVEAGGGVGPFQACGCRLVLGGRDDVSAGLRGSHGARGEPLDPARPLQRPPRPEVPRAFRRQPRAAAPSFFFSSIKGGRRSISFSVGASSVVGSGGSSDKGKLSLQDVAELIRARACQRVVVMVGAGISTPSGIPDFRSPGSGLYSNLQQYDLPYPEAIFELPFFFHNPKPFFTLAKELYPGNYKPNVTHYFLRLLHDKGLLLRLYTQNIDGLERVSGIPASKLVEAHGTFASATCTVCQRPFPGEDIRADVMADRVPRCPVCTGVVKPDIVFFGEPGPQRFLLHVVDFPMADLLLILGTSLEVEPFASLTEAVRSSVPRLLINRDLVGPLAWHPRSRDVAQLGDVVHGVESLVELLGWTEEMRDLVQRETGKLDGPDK
Method: SIRT3 protein at a concentration of 10 mg/mL was incubated with SKLB-11A (200 mM) in a mole ratio of 1:5 on ice for 1–3 h. The mixture was then centrifuged at 4 °C for 10 min, and the supernatant was used for crystallization. The precipitant solution consisted of 0.2 M Li2SO4, 1.0 M (NH4)2SO4, and 0.1 M Tris, at pH 7.5. Crystals emerged after approximately 3 days at 16 °C on a sitting-drop plate. The crystals were subsequently transferred to a cryoprotectant solution containing 20% glycerol and were flash-cooled in a nitrogen gas stream at 100 K for synchrotron radiation X-ray diffraction data collection. Site-directed mutagenesis. L298G Primer forward: 5′-[…]-GAACCGggc[…][…]-3′; reverse: 5′-gccCGGTT[…]-AAAACGA-3′; Site-directed mutagenesis was conducted using 2 x Phanta Flash Master Mix (Vazyme, P510). The mutated plasmid was sequenced by Sangon Biotech (Shanghai, China).
Binding kinetics of SIRT3 with various compounds were quantified using SSA biosensors on an Octet Red96 system (ForteBio). The assays occurred in 96-well plates, recording wavelength shifts in real-time. Ambient temperature was maintained at 25 °C, with plate agitation at 1000 rpm, and a reaction volume of 200 μL per well. SIRT3 protein and test compounds were prepared in phosphate-buffered saline (PBS, pH 7.4). […]

SIRT3 = target: T2, SIRT3 (Homo sapiens, UniProt Q9NTG7); assay: SPR binding to immobilized SIRT3; conditions: 25 °C, PBST pH 7.4
T2 construct: purchased Enzo Life Sciences BML-AK557-0001
T2 sequence (Q9NTG7 1-399): T1 sequence (Q9NTG7 1-399 L298G) with G298L
Method: The affinity of SKLB-11A for SIRT1, SIRT2, SIRT3, SIRT5, and SIRT6 was determined using a Reichert 4SPR system (Reichert Technologies, Depew, NY, USA). Proteins at 200 μg/mL were immobilized on a dextran-coated sensor chip (13206066) until reaching ≥12,000 response units (RUs). A dual-flow channel setup was used, reserving one channel for blank controls. SKLB-11A was introduced at varying concentrations for binding and subsequent dissociation kinetic analysis. Data acquisition was at 25 °C utilizing a PBST running buffer (pH 7.4). The equilibrium dissociation constant (K d) was computed from steady-state affinity measurements using TraceDrawer software.

H9c2 cells = assay: Dox-induced cardiotoxicity model in H9c2 cells, MTT cell viability; format: cell-based
Method: H9c2 cardiomyocytes were cultured in high-glucose DMEM supplemented with 10% FBS and 1% penicillin/streptomycin under a 5% CO2 atmosphere at 37 °C. Cells were seeded at 5 × 10^4 cells/mL in 96-well plates and treated with 1 μM Dox for 24 h. After Dox treatment, cell viability was quantified via MTT assay; 3-(4,5-dimethythiazol-2-yl)-2,5-diphenyltetrazolium bromide (MTT, 5 mg/mL) was applied for 4 h, followed by DMSO dissolution of formazan crystals. Additionally, cells were pretreated with 10 μM SKLB-11A for 24 h prior to 1 μM Dox exposure, and viability was similarly assessed using MTT.

[1] = tested on: LC3, p62, PINK1, Parkin in H9c2 cells; assay: Autophagy/mitophagy markers in H9c2 cells (Western blot, immunofluorescence); format: cell-based; conditions: 24 h
Method: Proteomic analysis was conducted on H9c2 cells and murine cardiac tissues. Protein lysates were resolved via SDS-PAGE and transferred onto PVDF membranes. […] After washing, membranes were probed with secondary antibodies for 1 h at room temperature. Detection was facilitated by an ECL kit, with densitometry performed using ImageJ software to quantify protein expression, normalized against controls. The antibodies employed included: anti-SIRT3 (2627, Cell Signaling Technology), anti-acetylated lysine (9441, CST), anti-Ac.K68-MnSOD2 (ab137037, Abcam), anti-Ac.K122-MnSOD2 (ab214675, Abcam), anti-MnSOD2 (13141, CST), anti-LC3B (3868, CST), anti-p62 (8025, CST), anti-PINK1 (6946, CST), anti-Parkin (4211, CST), and anti-β-actin (ab8226, Abcam).

SIRT5 = target: T3, SIRT5 (Rattus norvegicus, UniProt Q68FX9); assay: CETSA of SIRT5 in H9c2 cells; format: cell-based
T3 construct: endogenous in cells; host or cells: H9c2
T3 sequence (Q68FX9 37-310): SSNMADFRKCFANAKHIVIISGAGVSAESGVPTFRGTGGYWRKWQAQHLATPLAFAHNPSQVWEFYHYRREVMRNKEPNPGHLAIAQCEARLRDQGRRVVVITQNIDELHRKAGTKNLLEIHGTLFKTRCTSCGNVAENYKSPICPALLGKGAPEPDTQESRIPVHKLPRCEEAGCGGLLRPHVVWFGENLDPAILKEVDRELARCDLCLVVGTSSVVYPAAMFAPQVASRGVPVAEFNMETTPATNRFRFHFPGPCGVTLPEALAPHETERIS

COC(=O)c1c(N)n(Cc2ccc(F)cc2)c2nc3ccccc3nc12 [SKLB-11A, Methyl 2-amino-1-(4-fluorobenzyl)-1H-pyrrolo[2,3-b]quinoxaline-3-carboxylate]
Kd (SIRT3 L298G mutant): 167 µM | Kd (SIRT3): 4.7 µM | protective effects on H9c2 cells compared to the positive control compounds (H9c2 cells; Dox-treated H9c2, MTT): slightly better protective effects | viability at 10 µM (H9c2 cells; Rattus norvegicus, H9c2, 10 µM pretreatment 24 h, then 1 µM Dox 24 h, MTT, Model (Dox) = Dox alone, read-out: Cardiomyocyte survival rate at 10 uM (%)): 78.88 ± 0.65% | cardioprotective effects in H9c2 cells with reduced SIRT3 expression (H9c2 cells; SIRT3 knockdown by shRNA, cell viability): significantly diminished | LC3-II and p62 (autophagic flux) [1]: increased LC3-II expression and reduced p62 levels | expression of PINK1 and Parkin [1]: increased the expression of PINK1 and Parkin | thermal stability of SIRT5 (CETSA) (SIRT5): little effect on the thermal stability
